Measured values: ChEMBL document CHEMBL4422679, “Unexpected equivalent potency of a constrained chromene enantiomeric pair rationalized by co-crystal structures in complex with estrogen receptor alpha” (Bioorg Med Chem Lett, 2019)

Key:
[1] = system: Rattus norvegicus; assay: In vivo antagonist activity at estrogen receptor in Sprague-Dawley rat assessed as reduction in ethynylestradiol-stimulated increase in uterine wet weight at 10 mg/kg, po administered once daily via gavage for 3 days measured 24 hrs post last dose relative to control; type: functional; parameters: scale not given: the % may be the effect or the level left
[2] = Clearance in Sprague-Dawley rat at 1 mg/kg, iv or 1 mg/kg, po; type: ADME, organism-based; conditions: in vivo
[3] = system: MCF7; assay: Antiproliferative activity against human MCF7 cells after 3 days by CellTiter-Glo luminescent cell viability assay; type: functional, cell-based
[4] = Oral bioavailability in Sprague-Dawley rat at 1 mg/kg; type: ADME, organism-based; conditions: in vivo
[5] = Octanol-buffer distribution coefficient, log D of the compound at pH 7.4; type: physicochemical
[6] = system: Rattus norvegicus; assay: In vivo antagonist activity at estrogen receptor in Sprague-Dawley rat assessed as reduction in ethynylestradiol-stimulated increase in uterine wet weight at 0.1 mg/kg, po administered once daily via gavage for 3 days measured 24 hrs post last dose relative to control; type: functional; parameters: scale not given: the % may be the effect or the level left
[7] = system: Rattus norvegicus; assay: In vivo antagonist activity at estrogen receptor in Sprague-Dawley rat assessed as reduction in ethynylestradiol-stimulated increase in uterine wet weight administered once daily via oral gavage for 3 days measured 24 hrs post last dose; type: functional, organism-based
[8] = biological target: T1, Estrogen receptor (Homo sapiens, UniProt P03372)
T1 sequence (P03372 whole entry): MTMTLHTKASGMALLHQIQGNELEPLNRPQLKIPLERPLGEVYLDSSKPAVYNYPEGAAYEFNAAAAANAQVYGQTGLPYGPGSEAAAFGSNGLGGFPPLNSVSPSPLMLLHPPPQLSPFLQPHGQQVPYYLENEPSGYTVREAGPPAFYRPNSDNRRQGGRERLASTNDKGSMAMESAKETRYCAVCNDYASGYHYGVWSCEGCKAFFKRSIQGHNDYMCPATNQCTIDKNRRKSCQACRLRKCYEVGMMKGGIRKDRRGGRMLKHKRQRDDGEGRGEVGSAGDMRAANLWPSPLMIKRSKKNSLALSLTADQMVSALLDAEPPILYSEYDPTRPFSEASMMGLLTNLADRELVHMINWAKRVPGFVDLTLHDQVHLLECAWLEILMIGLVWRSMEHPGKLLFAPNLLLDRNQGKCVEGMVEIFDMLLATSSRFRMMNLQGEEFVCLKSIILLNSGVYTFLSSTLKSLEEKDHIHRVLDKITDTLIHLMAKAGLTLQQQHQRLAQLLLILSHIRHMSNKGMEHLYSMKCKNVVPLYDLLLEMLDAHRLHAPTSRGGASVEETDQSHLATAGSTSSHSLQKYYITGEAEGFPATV
Description: Induction of ERalpha degradation in human MCF7 cells after 4 hrs by Alexafluor-488 conjugate anti-mouse IgG antibody/Hoechst 33342 staining based immunofluorescence imaging analysis

[9] = system: Rattus norvegicus; assay: In vivo antagonist activity at estrogen receptor in Sprague-Dawley rat assessed as reduction in ethynylestradiol-stimulated increase in uterine wet weight at 60 mg/kg, po administered once daily via gavage for 3 days measured 24 hrs post last dose relative to control; type: functional; parameters: scale not given: the % may be the effect or the level left

Row | IC50 ([3]; Homo sapiens, MCF7, 72 h) [nM] | IC50 [8] [nM] | IC50 ([3]; mcf7) [nM] | Compound | also measured
1 | 0.7 | – | – | Oc1ccc2c(c1)OC(c1ccc(OCCN3CC(CF)C3)cc1)C1=C2CCOc2cc(O)ccc21 (racemic) | –
2 | 0.4 | – | – | Oc1ccc2c(c1)O[C@@H](c1ccc(OCCN3CC(CF)C3)cc1)C1=C2CCOc2cc(O)ccc21 | Activity [1]: 87%; clearance [2]: 57 mL/min/kg; Activity [6]: 17%; bioavailability [4]: 3.2%; Activity [7]: Dose-dependent effect; logD [5]: 3
3 | 0.6 | – | – | Oc1ccc2c(c1)OCCC1=C2C(c2ccc(OCCN3CC(CF)C3)cc2)Oc2ccc(O)cc21 (stereo in doubt; 17b) | clearance [2]: 237 mL/min/kg; logD [5]: 2.7
4 | 0.3 | – | – | Oc1ccc2c(c1)OC(c1ccc(OCCN3CC[C@@H](CF)C3)cc1)C1=C2CCOc2cc(O)ccc21 (some centres not stated) | –
5 | – | 3.2 | 10 | Oc1ccc2c(c1)C1=C(c3cc(O)ccc3OCC1)C(c1ccc(OCCN3CC(CF)C3)cc1)O2 (stereo in doubt; 19b) | –
6 | – | 9.6 | 20 | Oc1ccc2c(c1)OC(c1ccc(OCCN3CC(CF)C3)cc1)C1=C2CCOc2ccc(O)cc21 (stereo in doubt; 18b) | –
7 | 0.2 | – | – | C[C@@H](COc1ccc(C2Oc3cc(O)ccc3C3=C2c2ccc(O)cc2OCC3)cc1)N1CC[C@@H](CF)C1 (some centres not stated) | –
8 | – | – | – | CC/C(=C(\c1ccccc1)c1ccc(OCCN(C)C)cc1)c1ccccc1 [TAMOXIFEN] | Activity [9]: 36%
9 | 0.9 | – | – | Oc1ccc2c(c1)O[C@H](c1ccc(OCCN3CC(CF)C3)cc1)C1=C2CCOc2cc(O)ccc21 | logD [5]: 3.2
10 | – | 0.61 | 5 | Oc1ccc2c(c1)OC(c1ccc(OCCN3CC(CF)C3)cc1)C1=C2CCOc2ccc(O)cc21 (stereo in doubt; 18a) | –
11 | 1.2 | 0.28 | – | Oc1ccc2c(c1)OC(c1ccc(OCCN3CCCCC3)cc1)C1=C2CCOc2cc(O)ccc21 (racemic) | –
12 | – | 0.24 | 0.8 | Oc1ccc2c(c1)C1=C(c3cc(O)ccc3OCC1)C(c1ccc(OCCN3CC(CF)C3)cc1)O2 (stereo in doubt; 19a) | –
13 | – | – | 0.3 | Oc1ccc2c(c1)OCCC1=C2C(c2ccc(OCCN3CC(CF)C3)cc2)Oc2ccc(O)cc21 (stereo in doubt; 17a) | –

Row | Compound | IC50 ([3]; Homo sapiens, MCF7, 72 h) [nM] | IC50 [8] [nM] | IC50 ([3]; mcf7) [nM] | also measured
14 | CC1=C(c2cccc(O)c2)[C@H](c2ccc(OCCN3CC(CF)C3)cc2)Oc2ccc(O)cc21 | 0.2 | – | – | Activity [1]: 105.7%; clearance [2]: 85 mL/min/kg; bioavailability [4]: 16%; logD [5]: 2.9
